Reference: patent US20220257610A1, “Enhancing drug activity through accentuated buccal/sublingual administration” (priority 2019, published 2022)
Like-named read-outs stand apart in the source and are kept apart here.

Legend:
[1] = same or similar dose with permeability enhancers, compared with oral
Procedure: The clinical trials were conducted in two parts. The first part consisted of the following stages.
Further trials were carried out to determine the duration of action glipizide and adjuvant combination.
To test the efficacy of adjuvant we compared the efficacy of 5 mg of sub-lingual glipizide with adjuvant, with 5 mg of sublingual glipizide without adjuvant. […] Finally tests were carried out to determine whether the adjuvant used participates in receptor binding process. Keeping the amount of glipizide at 5 mg the quantity of adjuvant were doubled.

[2] = Comparative dosage study, sleep times in humans; type: in vivo; settings: much lower dose with adjuvant, compared with oral
Source text: The best method for carrying out the invention: Alprazolam and adjuvant are formulated into sublingual tablets/sprays by conventional methods and administered and sleep times recorded for humans as well as animals.

| SMILES | increase in effect [1] [%] | increase in effect [2] [%] |
| --- | --- | --- |
| Cc1cnc(C(=O)NCCc2ccc(S(=O)(=O)NC(=O)NC3CCCCC3)cc2)cn1 [glipizide] | 3200 |  |
| Cc1nnc2n1-c1ccc(Cl)cc1C(c1ccccc1)=NC2 [alprazolam] |  | 200 |
